Experiment: in vitro
Conditions: human, hela cells, % viability

SMILES	viability at 28.5 h, 10 µM [%]
CC(C)C(C(=O)O)N(C)C(=O)OCc1ccccc1 (stereo not drawn) [CBK286593]	84.8
O=S(=O)(Nc1cc(C(F)(F)F)ccc1N1CCOCC1)c1ccc(-c2ccccn2)s1 [CBK062557]	79.5
CCOC(=O)c1cnc(SCc2cccc([N+](=O)[O-])c2)nc1N [CBK266449]	95
Cc1cn([C@@H]2O[C@H](CO)[C@H](O)C2O)c(=O)[nH]c1=O (stereo partly drawn) [CBK201265]	101
CC(=O)Nc1ccc(N(CC(O)Cn2c3ccccc3c3ccccc32)S(C)(=O)=O)cc1 (stereo not drawn) [CBK264352]	96.7
O=C1c2ccccc2C2OCc3ccccc3N12 (stereo not drawn) [CBK109952]	105
O=C(NCc1ccncc1)c1ccc(-n2ccnc2)c(-n2cccc2)c1 [CBK285367]	88.4
O=C(O)CN1C(=O)C(O)=C(C(=O)c2ccc(Cl)cc2)C1c1ccccc1[N+](=O)[O-] (stereo not drawn) [CBK263794]	98.5
CCCCn1c(SCCC(=O)Nc2ccccc2C(=O)c2ccccc2)n[nH]c1=O [CBK296693]	87.3
O=C(C[C@@H]1O[C@H](CNS(=O)(=O)c2ccccc2)[C@@H](O)[C@H]1O)N1CCCC1 [CBK288909]	108
C(#Cc1ccc(-c2nc(-c3ccc(Sc4ccccc4)cc3)c(-c3ccc(Sc4ccccc4)cc3)[nH]2)cc1)c1ccccc1 [CBK261954]	95.3
COc1ccccc1N1CCN(c2cc(N3CCNCC3)ccc2[N+](=O)[O-])CC1 [CBK293931]	85.1
COc1ccc(C(=O)CSc2nnc(C(O)c3ccccc3)n2-c2ccccc2)cc1 (stereo not drawn) [CBK265104]	109
CN1CCN(C(=O)Cn2cccc(C(=O)Nc3ccc(F)cc3)c2=O)C(c2ccccc2)C1 (stereo not drawn) [CBK286045]	96.6
Cc1cc(NC(=O)C(=O)NCCN2CCN(S(C)(=O)=O)CC2)ccc1Br [CBK265401]	85.4
Cc1cccc2[nH]c(-c3ccccc3)nc12 [CBK000110]	92.9
O=C(c1cncnc1)N1CCC(F)CC1 [CBK200384]	92.1
O=c1[nH][nH]c2nc(O)cc(C(F)(F)F)c12 [CBK027081]	109
Cc1ccc(-n2sc(=O)n(CCc3ccccc3)c2=O)cc1 [CBK113496]	110
O=C(OCCCc1cccnc1)c1cc(=O)[nH]c2ccccc12 [CBK295631]	99.7
N#Cc1ccc(S(=O)(=O)NC2CCCCNC2=O)cc1 (stereo not drawn) [CBK009293]	102
CCn1ncc(CN2C3CCC2CC(O)(c2ccccc2F)C3)c1C (stereo not drawn) [CBK282663]	85

SMILES	viability at 28.5 h, 10 µM [%]
Cn1c(SCc2ccccc2)nc2ccsc2c1=O [CBK288039]	82.1
Cc1nc(-c2ccc(CCNC(=O)c3cc(O)nc4ccccc34)s2)cs1 [CBK297720]	94.2
O=C(Nc1ccc2cc(Br)cnc2n1)c1ccccc1[N+](=O)[O-] [CBK063253]	96.8
O=C(N/N=C/c1c[nH]c2ccccc12)c1cc(-c2ccc3ccccc3c2)[nH]n1 [CBK262885]	54.8
Cc1[nH]nc(Nc2ccc(I)cc2)c1[N+](=O)[O-] [CBK262748]	86.2
Cc1c(C(=O)NCc2cc(C3CC3)[nH]n2)[nH]c2c(Cl)cccc12 [CBK282533]	70.2
Cc1nc(S(=O)(=O)CCn2cccn2)n(C2CCCCC2)c1C [CBK305217]	102
CCCCc1c(C)nc2c(OC)cccc2c1SCCC(=O)O [CBK126917]	99.5
CCCCc1ccc(-c2cnc3nc(O)ccc3c2)cc1 [CBK081296]	69.9
Cc1cc(C(=O)N2Cc3ccccc3C2)n[nH]1 [CBK200328]	100
O=C(c1cccs1)N1C[C@H](c2ccc(F)cc2)[C@H]2CN(Cc3ccc(F)cc3)CC[C@H]21 [CBK285545]	91.3
CCN1CCC[C@@H]1CNC(=O)c1cc(Cl)nc(OC)c1 [CBK174692]	88.3
Cc1ccc(Cl)c(OC(C)C(=O)N2CCOC(CC(=O)O)C2)c1 (stereo not drawn) [CBK304769]	93
Cc1cccc2c1ncn1c(=O)n(CC(=O)Nc3cccc(Cl)c3)nc21 [CBK287815]	81.8
Cc1onc(-c2ccccc2Cl)c1C(=O)N(C)C [CBK160325]	102
COc1ccc(C(=O)OC(C)(C)C)c(-c2nccnc2N[C@@H](C)c2ccccc2)c1 [CBK036994]	94.2
Cc1nc(C)c(C(=O)Nc2ccc3c(c2)CN(Cc2ccccc2)C3)o1 [CBK281835]	91.2
COc1ccc(CCNC(=O)CCCc2cn(C)c3ccccc23)cc1OC [CBK061740]	100
COc1ccc([C@@]23CC[C@@H](NC(=O)Nc4nc(Cl)cc(Cl)n4)C[C@@H]2N(C)CC3)cc1OC [CBK067083T]	96.3
COc1cc(Nc2cncc(-c3ccc(O)cc3)n2)c(Cl)cc1C(=O)NCC(F)(F)F [CBK126470]	82.9
CC(C(=O)Nc1ccc2c(c1)OCO2)N(c1ccc(Cl)cc1)S(C)(=O)=O (stereo not drawn) [CBK268595]	89.5
O=C(NC1CCCCC1)N1C[C@@H]2C[C@H](C1)c1ccc(-c3cccnc3)c(=O)n1C2 [CBK289183]	93.6

SMILES	viability at 28.5 h, 10 µM [%]
CCN1CCC[C@@H]1CNC(=O)c1ccncc1 [CBK174659]	113
O=C(COc1ccccc1)n1nc(-c2ccco2)nc1NCc1cccs1 [CBK269145]	85.7
CCOC(=O)C1CCN(c2cccc(F)c2C#N)CC1 [CBK304558]	101
O=C(O)CCCC(=O)Nc1ccc(C(=O)O)cc1 [CBK261534]	86.5
CCCS(=O)(=O)N1CCN(S(=O)(=O)c2ccc(NC(C)=O)cc2)CC1 [CBK264288]	96.6
CC(C)n1c(=O)n(CCN2CCCC2)c2cccnc21 [CBK283532]	98.6
Cc1nc(-c2ccc(NC(=O)CC(C)n3cccn3)cc2)cs1 (stereo not drawn) [CBK281403]	98.4
O=C(O)c1ccccc1N1C(=O)c2ccc(Oc3ccc(Oc4ccc5c(c4)C(=O)N(c4ccccc4C(=O)O)C5=O)cc3)cc2C1=O [CBK261186]	88.6
Cc1cc(C)n(CC2CN(CC(=O)NCc3cccs3)CCO2)n1 (stereo not drawn) [CBK304902]	109
O=C(c1csc2c1CCCC2)N1CCc2c(nc[nH]c2=O)C1 [CBK283717]	77.7
CC(C)NS(=O)(=O)c1ccc(NC(=O)Cc2cccc3ccccc23)cc1 [CBK268102]	94.8
COc1cccc2cc(C(=O)NCc3c(F)cccc3F)oc12 [CBK149794]	65
COc1ccc(-c2ccc(C(=O)N(C)C)c(N3CCN(C(=O)c4ccco4)CC3)n2)cc1 [CBK106020]	86.3
CS(=O)(=O)Nc1ccc(C(=O)Nc2ccc(S(=O)(=O)Nc3nccs3)cc2)cc1 [CBK267856]	97.3
Nc1c(C(=O)O)nnn1Cc1ccccc1 [CBK263796]	95.6
COCC(=O)N1CCc2sccc2C1c1ccc(NCc2ccccc2F)cc1 (stereo not drawn) [CBK286446]	96.6
CCN(CC)C(=O)c1[nH]c2ccccc2c1NS(=O)(=O)c1c(C)noc1C [CBK050117]	89.1
Cc1ccc(SCCNc2nc3c([nH]2)c(=O)n(C)c(=O)n3C)cc1 [CBK269887]	92.7
O=C(c1ccncc1)N1C2CCC1CC(O)(c1ccc(F)cc1)C2 (stereo not drawn) [CBK283545]	95.6
Cc1cc(NC(=O)Cc2ccsc2)c2ccccc2n1 [CBK116259]	89.4
COc1ccc(-c2ccccc2)cc1NCc1cc2cc(OC)c(OC)cc2[nH]c1=O [CBK286160]	99.5
O=C1c2cc(-c3nc(-c4ccccc4)[nH]c3-c3ccccc3)ccc2-c2ccc([N+](=O)[O-])cc21 [CBK262613]	85

SMILES	viability at 28.5 h, 10 µM [%]
O=C(Cn1cccn1)NC(Cc1ccsc1)c1ccccn1 (stereo not drawn) [CBK285284]	92.8
O=C(c1cscn1)N1CCC2(CCCNC2)C1 (stereo not drawn) [CBK153230C]	97
Cc1nn(C)c2ncc(S(=O)(=O)NC(C)c3cccc(F)c3)cc12 (stereo not drawn) [CBK305948]	94.9
COc1ccc(CCc2nc(C)cc(CN(C)C)c2O)cc1 [CBK278313C]	106
O=C(Nc1ccccc1)Nc1ccc(=O)n2c1[C@@H]1C[C@@H](CN(C(=O)c3ccc(F)cc3)C1)C2 [CBK288714]	104
Cc1cc(Cl)ccc1CNC(=O)c1ccc2[nH]ccc2c1 [CBK149048]	81.7
O=C(Cn1c(NCCO)nc2ccccc21)c1ccco1 [CBK264127B]	96.3
Cc1ccc(CN(C(=O)/C=C/C(=O)O)C(C)(C)C)cc1 [CBK286799]	91.5
Cc1ccc(C(=O)N2CCN(C)CC2)c(N2CCOCC2)n1 [CBK106199]	100
COc1ccc(-c2ccc(/C=N/N=C3\NC(=O)C(CC(=O)O)S3)o2)c([N+](=O)[O-])c1 (stereo not drawn) [CBK264516]	102
COc1cccc(OCc2ccc(Cn3ccn(C(=O)CCCC(C)C)c3=O)cc2)c1 [CBK106638]	90.5
CS(=O)(=O)Nc1cc2ccccc2c(-c2cccnc2)n1 [CBK085747]	108
Cc1occc1SCC(=O)Nc1ccc(CN2CCOCC2)cc1 [CBK306453]	89.9
CC(=O)NC[C@@H]1C=C(C)[C@H](CC(=O)Nc2ccccn2)C[C@H]1C(C)C [CBK289209]	92.3
CN(Cc1nccs1)C(=O)c1cccc(OCC(=O)N2CCCCC2)c1 [CBK307478]	108
Cc1nn2c(O)c(CCO)c(C(=O)O)nc2c1-c1ccc(Cl)cc1 [CBK286699]	108
Nc1nnc(Sc2nccnc2N2CCCC2)s1 [CBK093804]	103
NS(=O)(=O)c1ccc(CCNC(=O)CN2C(=O)c3ccccc3C2=O)cc1 [CBK264377]	96
CCOC(=O)C1=C(C)N(CCO)C(=O)NC1c1ccccc1Br (stereo not drawn) [CBK027192]	104

Same assay, conditions: human, hela cells, % viability, bulk resorufin, single well

SMILES	viability at 28.5 h, 10 µM [%]
O=C1NC(=O)C(CCC(=O)N2CCN(c3nc4ccccc4s3)CC2)C(=O)N1 [CBK285807]	86.6
COc1ccc(CC(=O)Nc2cccc(-c3ccc4c(c3)COC3(CCNCC3)O4)c2)c(OC)c1 [CBK115706]	89.6
